Assay results from paper PMC8194506 (Antiviral research, 2020).
Like-named read-outs stand apart in the source and are kept apart here.

What was measured:
EBOV [1] = conditions: cited from earlier work
EBOV [2] = conditions: mouse, in vivo; cited from earlier work
Sudan virus = conditions: guinea pig, in vivo, sc; cited from earlier work
in vitro [3] = conditions: human, microsomes
in vitro [4] = conditions: guinea pig, microsomes
[5] = mouse, microsomes
[6] = human, microsomes
[7] = microsomes
[8] = guinea pig, microsomes
in vitro [9] = conditions: mouse, microsomes
EBOV [10] = conditions: in vivo, iv; cited from earlier work
EBOV [11] = conditions: human, in vivo; cited from earlier work
[12] = test system: Marburg virus/H.sapiens-tc/AGO/2005/Ang-1379v (MARV/Ang); assay: organism not typed; format: cell-based; conditions: HeLa
[13] = test system: Marburg virus/H.sapiens-tc/KEN/1980/Mt. Elgon-Musoke (MARV/Mus); assay: organism not typed; format: cell-based; conditions: HeLa
[14] = test system: VSV pseudotyped with EBOV glycoprotein; format: cell-based
in vitro [15] = conditions: human
[16] = pH 7.4
MARV Musoke strain = format: cell-based, Marburg virus
MARV (Musoke and Angola) = assay: organism not typed; format: cell-based, Marburg virus; conditions: HeLa, read-out: IC50 range against two strains of MARV
in vivo = conditions: male, Hartley, guinea pig, ip, 125 mg/kg
[17] = test system: EBOV (Kikwit, Mayinga and Makona); assay: microbe, parasite or virus in culture; format: cell-based, Ebola virus; conditions: Zaire ebolavirus, HeLa, read-out: IC50 range against three strains of EBOV
[18] = male, Hartley, guinea pig, in vivo
[19] = human, in vivo; cited from earlier work
[20] = both, Hartley, guinea pig, in vivo

Molecule	activity in the guinea pig in vivo model (EBOV [1])	half-life (in vitro [3]) [h]	half-life (in vitro [4]) [h]	Clint [5] [µL·min/mg]	Clint [6] [µL·min/mg]	Clint [7] [µL·min/mg]	Clint [8] [µL·min/mg]	half-life (in vitro [9]) [h]	further results
CCCCc1oc2ccccc2c1C(=O)c1cc(I)c(OCCN(CC)CC)c(I)c1 [amiodarone]	inactive								
NC(=O)c1nc(F)c[nH]c1=O [Favipiravir]									protection (EBOV [2]): 83%; survival rates (Sudan virus): 83–100%
CCN(CC)CCCC(C)Nc1ccnc2cc(Cl)ccc12 (centres unmarked) [Chloroquine]	inactive	3.36	2.21	29.3	6.9	13.0	10.5	0.788	
CCC(CC)COC(=O)[C@H](C)N[P@](=O)(OC[C@H]1O[C@@](C#N)(c2ccc3c(N)ncnn23)[C@H](O)[C@@H]1O)Oc1ccccc1 [remdesivir]									survival (EBOV [10]): 100%; overall survival rate (EBOV [11]): 47%
CCN(CC)CCCC(C)Nc1c2ccc(Cl)cc2nc2ccc(OC)cc12 (centres unmarked) [Quinacrine]		0.458	0.285	110.0	50.5	137.4	81.3	0.21	IC50 [12]: 2940 ± 760 nM; IC50 [13]: 1570 ± 170 nM; Effect on entry stage of infection in pseudotype assay [14]: block the entry stage of infection; CC50 (in vitro [15]): 8620 ± 20 nM; O-demethylation, higher in guinea pig [16]: 2–3 times; Activity against MARV Musoke strain (MARV Musoke strain): active
COc1ccc2nc3cc(Cl)ccc3c(Nc3cc(CN4CCCC4)c(O)c(CN4CCCC4)c3)c2n1 [Pyronaridine, 4-[(7-Chloro-2-methoxybenzo[b][1,5]naphthyridin-10-yl)amino]-2,6-bis(1-pyrrolidinylmethyl)phenol phosphate (1:4)]		2.04	1.1	<7.4	11.4	15.5	21.0	> 3.1	IC50 (MARV (Musoke and Angola)): 1010 to 2720 nM; AUC(0-inf) (in vivo): 17400 ng·h/mL; AUC(0-t) (in vivo): 16600 ng·h/mL; Cmax (in vivo): 523 ng/mL; half-life (in vivo; T1/2): 72.7 h; IC50 [17]: 820 to 1300 nM; Guinea pigs found dead on days 14 and 17 post dose [18]: 2 of 3; T1/2 ([18]; po, 600 mg/kg): 90.5 h; IC50 [12]: 2720 ± 970 nM; IC50 [13]: 1010 ± 110 nM; t1/2 [19]: 195 to 251 h; Effect on entry stage of infection in pseudotype assay [14]: block the entry stage of infection; CC50 (in vitro [15]): 4110 ± 500 nM; guinea pigs found dead within 30 mins post injection [20]: 4 of 6; guinea pigs having any abnormal clinical observations [20]: 1 of 6; Activity against MARV Musoke strain (MARV Musoke strain): active
CCN(CC)CCOc1ccc2c(c1)C(=O)c1cc(OCCN(CC)CC)ccc1-2 [Tilorone]		2.12	0.203	13.5	10.9	14.7	113.7	1.71	IC50 [12]: 4510 ± 1930 nM; IC50 [13]: 2050 ± 280 nM; Effect on entry stage of infection in pseudotype assay [14]: block the entry stage of infection; CC50 (in vitro [15]): 18000 ± 3040 nM; Activity against MARV Musoke strain (MARV Musoke strain): active
Nc1nc(Nc2ccc3c(c2)CC[C@@H](N2CCCC2)CC3)nn1-c1cc2c(nn1)-c1ccccc1CCC2 [BGB324]	inactive								
17-DMAG	inactive								
CC[C@H]1OC(=O)[C@H](C)[C@@H](O[C@H]2C[C@@](C)(OC)[C@@H](O)[C@H](C)O2)[C@H](C)[C@@H](O[C@@H]2O[C@H](C)C[C@H](N(C)C)[C@H]2O)[C@](C)(O)C[C@@H](C)CN(C)[C@H](C)[C@@H](O)[C@]1(C)O [azithromycin]	inactive								
mAb114: a monoclonal antibody (antibody, chains of the INN, looked up, V domains shown) VH: EVQLVESGGGLIQPGGSLRLSCAASGFALRMYDMHWVRQTIDKRLEWVSAVGPSGDTTYADSVKGRFAVSRENAKNSLSLQMNSLTAGDTAIYYCVRSDRGVAGLFDSWGQGILVTVSS VL: DIQMTQSPSSLSASVGDRITITCRASQAFDNYVAWYQQRPGKVPKLLISAASALHAGVPSRFSGSGSGTHFTLTISSLQPEDVATYYCQNYNSAPLTFGGGTKVEIK									overall survival rate (EBOV [11]): 66%
